The record followed here is patent publication US10774084B2, “Adenine derivatives and their use as UV-photoprotective agents” (UNIVERZITA PALACKEHO V OLOMOUCI, priority 2015, dated 2020).

The subject of one data set is caspase-3 activity. Put plainly: UVB-induced caspase-3 activity in NHDF (Ac-DEVD-AMC). It is filed as cell-based, human. From the text:
Normal human dermal fibroblasts (NHDF) were used as an in vitro model. Cells were isolated from tissue specimens obtained from healthy patients undergoing plastic surgery at the Department of Plastic and Aesthetic Surgery (University Hospital Olomouc). The use of skin tissue was in accordance with the Ethics Committee of the University Hospital and Faculty of Medicine and Dentistry, Palacky University, Olomouc and all patients signed written informed consent. Fibroblasts were used between the 2nd and 4th passage. For all experiments the fibroblasts were seeded onto 6-well plates at a density of 0.5×10^5 cells/cm^2 of cultivation medium (DMEM supplemented with fetal calf serum (10%, v/v), penicillin (100 mg/ml) and streptomycin (100 U/ml)).
Test compounds included 6-(tetrahydrofuran-2-ylmethylamino)-9-(tetrahydrofuran-2-yl)purine and positive control (rosmarinic acid). […] Intensity of UVB radiation was evaluated before each irradiation by UVB-meter. […] After 4 hours (37° C., 5% CO2) cell damage was evaluated by analysis of caspase-3 activity.
Caspase-3 activity was evaluated by specific substrate (Ac-DEVD-AMC). […] Fluorescence was measured at (400/505 nm) after 1 hour incubation (37° C., dark). Protein content was analyzed spectrophotometrically by Bradford protein assay (INFINITE M200, Tecan, Switzerland). […]

The next data set concerns HaCaT. Put plainly: In vitro UVA/UVB photoprotection test on HaCaT. The data set is classed as cell-based, human. How it is done:
Spontaneously Immortalized Aneuploid Human Keratinocyte Cell Line (HaCaT) was bought from CLS (Eppeheim, Germany) and used as an in vitro model. For all experiments the keratinocytes were seeded onto 96-well plates at a density of 1.6×10^5 cells/ml (0.2 ml per well) of growth medium (DMEM supplemented with fetal bovine serum (10%), penicillin ([…]) and streptomycin (100 U/ml)).
Test substances included compounds number 3, 9, 15 and 20. Compounds were dissolved in DMSO and then diluted in serum free medium (DMEM supplemented penicillin ([…]) and streptomycin (100 U/ml)). After 24 h incubation was growth medium changed to serum free medium containing test compounds. The final applied concentration range was 3.9-31.25 μmol/l. As a control, serum free medium supplemented with appropriate concentration of DMSO (0.5%, v/v) was used. Rosmarinic acid was used as positive control. After 60 minutes incubation with test compounds medium was discarded, cells were washed two-times with PBS and PBS supplemented with glucose (1 mg/ml) was applied. To study UVA photoprotection, a plate was exposed to a cytotoxic dose of UVA radiation (10 J/cm2) using a solar simulator SOL 500 (Dr. Hoenle Technology, Germany) equipped with a H1 filter transmitting wavelengths of 320-400 nm. To study UVB photoprotection, a plate was exposed to a cytotoxic dose of UVB radiation (150 mJ/cm2) using the solar simulator equipped with a H2 filter transmitting wavelengths of 295-320 nm. Intensity of UVA or UVB radiation was evaluated before each irradiation by UVA- or UVB-meter. Control (non-irradiated) plates were for the period of irradiation incubated in dark. After UVA or UVB exposure PBS with glucose was discarded and serum free medium was applied. After 24 hours (37° C., 5% CO2) cell damage was evaluated by neutral red (NR) incorporation into viable cells. Medium was discarded and NR solution (0.03% w/v, PBS) was applied. After 60 minutes NR solution was discarded, cells were fixed with a mixture of formaldehyde (0.5%, v/v) and CaCl2 (1%, m/v) in ratio 1:1 and then NR was dissolved in methanol (50%, v/v) with acetic acid (1%, v/v).
After 5 minutes of intensive shaking absorbance was measured at 540 nm. Experiments were performed in four independent repetitions with use of […] to minimize individual sensitivity of donor cells. Photoprotective effect was evaluated by comparison of experimental data (absorbance) of test compounds with a positive control and a negative control (according to the following equation: […]
As . . . absorbance of sample (cells pre-incubated with test compounds in serum free medium and irradiated)
Anc . . . absorbance of negative control (cells pre-incubated with s DMSO in serum free medium and non-irradiated=incubated in dark)
Apc . . . absorbance of positive control (cells pre-incubated with s DMSO in serum free medium and irradiated)

[1] abbreviates: Table 17: UVA-induced damage (10 J/cm2), 3.9 μmol/l.
The mark [2] stands for this setting: Table 17: UVA-induced damage (10 J/cm2), 7.8 μmol/l.
Where [3] appears, read: Table 17: UVA-induced damage (10 J/cm2), 15.6 μmol/l.
The mark [4] stands for this setting: Table 17: UVA-induced damage (10 J/cm2), 31.3 μmol/l.
Setting [5] is: Table 18: titled UVA-induced damage, 3.9 μmol/l.
Setting [6] is: Table 18: titled UVA-induced damage, 7.8 μmol/l.
The mark [7] stands for this setting: Table 18: titled UVA-induced damage, 15.6 μmol/l.
[8] abbreviates: Table 18: titled UVA-induced damage, 31.3 μmol/l.

For the compound `c1nc(NCC2CCCO2)c2ncn(C3CCCO3)c2n1` (stereo not shown) [Compound 1, 6-(tetrahydrofuran-2-ylmethylamino)-9-(tetrahydrofuran-2-yl)purine], the “effect on UVB-induced activity of caspase-3 (in words)” value in the data set with caspase-3 activity (UVB, NHDF) is “decreased”. Besides, the “effect on caspase-3 activity in non-irradiated cells (in words)” value in the data set on caspase-3 activity (non-irradiated NHDF, 2.5-20 μmol/l) is on record as “did not showed negative effect”.
Turning to `OCc1ccc(CNc2ncnc3c2ncn3C2CCCO2)o1` (stereo not shown) [Compound 3, 6-(5-hydroxymethylfuran-2-ylmethylamino)-9-(tetrahydrofuran-2-yl)purine], the “Protection (%)” value was 26.8% with HaCaT (setting [1]); 34.3% with HaCaT (setting [2]); 46.0% with HaCaT (setting [3]); 50.7% with HaCaT (setting [4]); 27.3% in the data set with HaCaT (setting [5]); 46.5% in the data set with HaCaT (setting [6]). In addition, the “Protection (%)” value with HaCaT (setting [7]) is given as 47.8%; in the data set on HaCaT (setting [8]), 53.8%.
In the case of `c1csc(CNc2ncnc3c2ncn3C2CCCO2)c1` (stereo not shown) [Compound 9, 6-(thiophen-2-ylmethylamino)-9-(tetrahydrofuran-2-yl)purine], the “Protection (%)” value was found to be 72.1% in the data set with HaCaT (setting [1]); 70.3% in the data set on HaCaT (setting [2]); 66.8% in the data set on HaCaT (setting [3]); 61.4% in the data set with HaCaT (setting [4]); 48.8% in the data set with HaCaT (setting [5]); 56% in the data set with HaCaT (setting [6]). The “Protection (%)” value with HaCaT (setting [7]) came to 55.7%; in the data set on HaCaT (setting [8]) it was 56.5%.
As to `Clc1nc(NCc2ccco2)c2ncn(C3CCCO3)c2n1` (stereo not shown) [Compound 15, 2-chloro-6-furfurylamino-9-(tetrahydrofuran-2-yl)purine], the “Protection (%)” value in the data set with HaCaT (setting [1]) is given as 41.2%; with HaCaT (setting [2]) it was 56.9%; in the data set on HaCaT (setting [3]) it was 55.3%; with HaCaT (setting [4]), 76.7%; with HaCaT (setting [5]), 12.3%; with HaCaT (setting [6]), 35.3%. The “Protection (%)” value with HaCaT (setting [7]) is given as 37.8%; in the data set with HaCaT (setting [8]), 51.3%.
In the case of `Clc1nc(NCC2CCCO2)c2ncn(C3CCCO3)c2n1` (stereo not shown) [Compound 20, 2-chloro-6-(tetrahydrofuran-2-ylmethylamino)-9-(tetrahydrofuran-2-yl)purine], the “Protection (%)” value with HaCaT (setting [1]) was 12.3%; with HaCaT (setting [2]), 25.0%; in the data set with HaCaT (setting [3]), 28.9%; in the data set on HaCaT (setting [4]), 31.6%; in the data set on HaCaT (setting [5]) it was 45.7%; with HaCaT (setting [6]), 66.2%. The “Protection (%)” value worked out at 64% with HaCaT (setting [7]) and 75.2% in the data set on HaCaT (setting [8]).
